“And” between values parts separate entries of the source, which are not always exact repeats. Equal entries are not always repeated.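 Interpolation was linear, between the two tested concentrations surrounding the appropriate level; five concentrations were tested over 48 hours in 96-well plates. Abbreviation: GI50, concentration required for 50% inhibition of growth.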 The source made the active and inactive calls. Rule as the data show it: active = GI50 up to about 1.1 µM and inactive = higher.
Experiments:
Assay in all cases: NCI anticancer screen, dose series, 48 h
SK-OV-3 = tested on: SK-OV-3
IGROV-1 = tested on: IGROV-1
786-0 = tested on: 786-0
CAKI-1 = tested on: CAKI-1
OVCAR-4 = tested on: OVCAR-4
LOX IMVI = tested on: LOX IMVI
MOLT-4 = tested on: MOLT-4
ACHN = tested on: ACHN
SR = tested on: SR
SW-620 = tested on: SW-620
HCT-116 = tested on: HCT-116
CCRF-CEM = tested on: CCRF-CEM
MDA-MB-435 = tested on: MDA-MB-435
SK-MEL-28 = tested on: SK-MEL-28
UO-31 = tested on: UO-31
A549 = tested on: A549
NCI/ADR-RES = tested on: NCI/ADR-RES
HCT-15 = tested on: HCT-15
OVCAR-8 = tested on: OVCAR-8
TK-10 = tested on: TK-10

CCCCCCCCCCCCCCCC(=O)OCC(O)C1OC(=O)C(O)=C1O (stereo not given)
GI50 (SK-OV-3): 35.6 µM (inactive) | GI50 (IGROV-1): 37.6 µM (inactive) | GI50 (786-0): 19.6 µM (inactive) | GI50 (CAKI-1): 43.9 µM (inactive) | GI50 (OVCAR-4): 52.8 µM (inactive) | GI50 (LOX IMVI): 26.2 µM (inactive) | GI50 (MOLT-4): 62.7 µM (inactive) | GI50 (ACHN): 34 µM (inactive) | GI50 (SR): 58.2 µM (inactive) | GI50 (SW-620): 37.9 µM (inactive) | GI50 (HCT-116): 19.3 µM (inactive) | GI50 (CCRF-CEM): 23.7 µM (inactive) | GI50 (MDA-MB-435): 21 µM (inactive) | GI50 (SK-MEL-28): 20.4 µM (inactive) | GI50 (UO-31): 28.9 µM (inactive) | GI50 (A549): 21.8 µM (inactive) | GI50 (NCI/ADR-RES): 29.3 µM (inactive) | GI50 (HCT-15): 32.5 µM

COC(=O)C1=C(C)NC2=C(C(=O)c3ccccc32)C1c1c[nH]nc1-c1ccccc1 (stereo not given)
GI50 (SK-OV-3): > 100 µM (inactive) | GI50 (IGROV-1): 20.2 µM (inactive) | GI50 (786-0): > 100 µM (inactive) | GI50 (CAKI-1): 63.8 µM (inactive) | GI50 (OVCAR-4): 54.7 µM (inactive) | GI50 (OVCAR-8): 38.1 µM (inactive) | GI50 (MOLT-4): 24.8 µM (inactive) | GI50 (ACHN): 35.2 µM (inactive) | GI50 (SR): 24.4 µM (inactive) | GI50 (SW-620): 59.3 µM (inactive) | GI50 (HCT-116): > 100 µM (inactive) | GI50 (CCRF-CEM): 40.3 µM (inactive) | GI50 (MDA-MB-435): 57.4 µM (inactive) | GI50 (SK-MEL-28): 49.4 µM (inactive) | GI50 (UO-31): > 100 µM (inactive) | GI50 (A549): 47.6 µM (inactive) | GI50 (NCI/ADR-RES): 42.1 µM (inactive) | GI50 (HCT-15): 62.5 µM

COC1CC(COCc2ccccc2)CC(OC)O1 (stereo not given)
GI50 (SK-OV-3): > 100 µM (inactive) | GI50 (786-0): > 100 µM (inactive) | GI50 (CAKI-1): > 100 µM (inactive) | GI50 (LOX IMVI): 64 µM (inactive) | GI50 (OVCAR-8): > 100 µM (inactive) | GI50 (MOLT-4): > 100 µM (inactive) | GI50 (ACHN): > 100 µM (inactive) | GI50 (SR): > 100 µM (inactive) | GI50 (SW-620): > 100 µM (inactive) | GI50 (HCT-116): > 100 µM (inactive) | GI50 (CCRF-CEM): 0.0198 µM (active) | GI50 (MDA-MB-435): > 100 µM (inactive) | GI50 (UO-31): > 100 µM (inactive) | GI50 (A549): > 100 µM (inactive) | GI50 (TK-10): > 100 µM (inactive) | GI50 (NCI/ADR-RES): > 100 µM (inactive) | GI50 (HCT-15): > 100 µM

O=c1cc(-c2ccccc2)[nH]c2ccc(S)cc12
GI50 (SK-OV-3): 23.7 µM (inactive) | GI50 (IGROV-1): 29.8 µM (inactive) | GI50 (786-0): 79.8 µM (inactive) | GI50 (OVCAR-4): 57.1 µM (inactive) | GI50 (OVCAR-8): 31.7 µM (inactive) | GI50 (MOLT-4): 14.3 µM (inactive) | GI50 (ACHN): 30.2 µM (inactive) | GI50 (SR): 30.8 µM (inactive) | GI50 (SW-620): 38.7 µM (inactive) | GI50 (HCT-116): 24.4 µM (inactive) | GI50 (CCRF-CEM): 22.1 µM (inactive) | GI50 (MDA-MB-435): 21.4 µM (inactive) | GI50 (SK-MEL-28): 28.8 µM (inactive) | GI50 (A549): 52.1 µM (inactive) | GI50 (TK-10): 33.9 µM (inactive) | GI50 (NCI/ADR-RES): 24.9 µM (inactive) | GI50 (HCT-15): 16.8 µM

Cc1ccc(/C=C2/N/C(=N\N=C/C(O)C(O)C(O)CO)NC2=O)cc1 (stereo not given)
GI50 (SK-OV-3): > 100 µM (inactive) | GI50 (IGROV-1): > 100 µM (inactive) | GI50 (786-0): > 100 µM (inactive) | GI50 (CAKI-1): > 100 µM (inactive) | GI50 (OVCAR-4): 33.1 µM (inactive) and 35.8 µM (inactive) | GI50 (LOX IMVI): > 100 µM (inactive) | GI50 (OVCAR-8): > 100 µM (inactive) | GI50 (ACHN): > 100 µM (inactive) | GI50 (SR): > 100 µM (inactive) | GI50 (SW-620): > 100 µM (inactive) | GI50 (HCT-116): > 100 µM (inactive) | GI50 (MDA-MB-435): > 100 µM (inactive) | GI50 (SK-MEL-28): > 100 µM (inactive) | GI50 (UO-31): > 100 µM (inactive) | GI50 (A549): > 100 µM (inactive) | GI50 (TK-10): > 100 µM (inactive) | GI50 (NCI/ADR-RES): > 100 µM (inactive) | GI50 (HCT-15): 89.9 µM and 79.1 µM

COc1ccc(/N=N/C(=N\c2ccc(Cl)cc2)c2ccc(N(CCC#N)CCC#N)cc2)cc1
GI50 (SK-OV-3): > 100 µM (inactive) | GI50 (IGROV-1): 56.4 µM (inactive) | GI50 (786-0): 83.8 µM (inactive) | GI50 (CAKI-1): 27.2 µM (inactive) | GI50 (OVCAR-4): 10.1 µM (inactive) | GI50 (OVCAR-8): > 100 µM (inactive) | GI50 (MOLT-4): 15.3 µM (inactive) | GI50 (ACHN): 19.9 µM (inactive) | GI50 (SR): 0.834 µM (active) | GI50 (SW-620): 24.7 µM (inactive) | GI50 (HCT-116): 43.9 µM (inactive) | GI50 (CCRF-CEM): < 0.01 µM (active) | GI50 (MDA-MB-435): 7.23 µM (inactive) | GI50 (SK-MEL-28): > 100 µM (inactive) | GI50 (UO-31): 5.06 µM (inactive) | GI50 (A549): 47.6 µM (inactive) | GI50 (TK-10): 38.7 µM (inactive) | GI50 (NCI/ADR-RES): 10.5 µM (inactive) | GI50 (HCT-15): 2.39 µM

CC[C@@]1(O)C(=O)OCc2c1cc1n(c2=O)Cc2c-1nc1ccccc1c2/C=N\NC(=O)CN
GI50 (IGROV-1): 2.59 µM (inactive) | GI50 (786-0): 0.0908 µM (active) | GI50 (CAKI-1): 0.131 µM (active) | GI50 (OVCAR-4): 9.46 µM (inactive) | GI50 (LOX IMVI): 0.0989 µM (active) | GI50 (OVCAR-8): 0.273 µM (active) | GI50 (MOLT-4): < 0.0316 µM (active) | GI50 (ACHN): < 0.0197 µM (active) | GI50 (SR): < 0.0125 µM (active) | GI50 (SW-620): 0.315 µM (active) | GI50 (HCT-116): 0.419 µM (active) | GI50 (CCRF-CEM): < 0.0163 µM (active) | GI50 (MDA-MB-435): 1.61 µM (inactive) | GI50 (SK-MEL-28): 23 µM (inactive) | GI50 (UO-31): 0.33 µM (active) | GI50 (A549): 0.687 µM (active) | GI50 (TK-10): 26.1 µM (inactive) | GI50 (NCI/ADR-RES): 0.726 µM (active) | GI50 (HCT-15): 0.221 µM

CC(=O)OI1NC(=O)c2ccccc21
GI50 (SK-OV-3): > 100 µM (inactive) | GI50 (IGROV-1): > 100 µM (inactive) | GI50 (786-0): > 100 µM (inactive) | GI50 (OVCAR-4): > 100 µM (inactive) | GI50 (LOX IMVI): > 100 µM (inactive) | GI50 (OVCAR-8): > 100 µM (inactive) | GI50 (MOLT-4): > 100 µM (inactive) | GI50 (ACHN): > 100 µM (inactive) | GI50 (SR): > 100 µM (inactive) | GI50 (SW-620): > 100 µM (inactive) | GI50 (HCT-116): > 100 µM (inactive) | GI50 (CCRF-CEM): 76.7 µM (inactive) | GI50 (MDA-MB-435): > 100 µM (inactive) | GI50 (SK-MEL-28): > 100 µM (inactive) | GI50 (UO-31): > 100 µM (inactive) | GI50 (A549): > 100 µM (inactive) | GI50 (TK-10): > 100 µM (inactive) | GI50 (NCI/ADR-RES): > 100 µM (inactive) | GI50 (HCT-15): > 100 µM
